Experimental data taken from patent US8192962B2, “Processes for detecting toxic substances” (Daikin Industries, Ltd., priority 2001, dated 2012).

System: DNA repair protein genes
Test: DNA chip mRNA expression in yeast, DNA repair protein genes (Table 3)
Type: cell-based, Saccharomyces cerevisiae S288C
Conditions: incubated two hours, concentrations as in the 1st table
How it was run: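 Measured as treated-to-untreated fluorescence ratio on a full-genome yeast DNA chip. Cells (S288C, YPD, 25° C.) were exposed in log phase for two hours to one chemical, dosed to curb growth without killing.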

Measured: The level of expressed mRNA in the presence of chemical substance/The level of expressed mRNA in the absence of chemical substance

CCCCCCCCCCCCOS(=O)(=O)[O-].[Na+] [(18), sodium lauryl sulfate]
1.9: yeast gene YGR180C | yeast gene YMR072W
2.4: yeast gene YMR035W
1.2: yeast gene YAL015C | yeast gene YBR272C | yeast gene YGL127C | yeast gene YIR002C | yeast gene YLR233C | yeast gene YNL213C
1.6: yeast gene YDL200C
1.0: yeast gene YAR007C | yeast gene YDL017W | yeast gene YGL249W | yeast gene YHR164C | yeast gene YML032C | yeast gene YMR096W | yeast gene YNL250W | yeast gene YNL261W | yeast gene YOL043C | yeast gene YOR005C | yeast gene YPL164C
1.4: yeast gene YDR054C | yeast gene YLR103C
1.7: yeast gene YOR386W
1.1: yeast gene YBL019W | yeast gene YIL072W | yeast gene YNL312W
1.5: yeast gene YGR231C | yeast gene YKL145W | yeast gene YML058W | yeast gene YPR025C
1.8: yeast gene YGL091C
2.1: yeast gene YJL026W
1.3: yeast gene YIL036W | yeast gene YJR052W | yeast gene YLR288C | yeast gene YMR284W
8.8: yeast gene YFL014W
0.7: yeast gene YDR369C | yeast gene YGL058W | yeast gene YIL153W | yeast gene YJR046W
0.8: yeast gene YBR073W | yeast gene YEL037C | yeast gene YGL163C | yeast gene YPL194W
0.9: yeast gene YCR014C | yeast gene YDL059C | yeast gene YEL019C | yeast gene YER162C | yeast gene YGR258C | yeast gene YIL143C | yeast gene YPL022W
